Experimental data taken from ChEMBL document CHEMBL3792356, “Discovery of molluscicidal and cercaricidal activities of 3-substituted quinazolinone derivatives by a scaffold hopping approach using a pseudo-ring based on the intramolecular hydrogen bond formation” (Eur J Med Chem, 2016).
Values after ≈ are worked out from the molar mass of the structure shown.

How the values were obtained:
Oncomelania hupensis = assay: Molluscicidal activity against Oncomelania hupensis measured after 24 hrs; type: functional; settings: for LC50: Oncomelania hupensis, 24 h
Schistosoma japonicum = assay: Cercaricidal activity against Schistosoma japonicum infected in Oncomelania hupensis measured after 120 mins by colour television microscopy; type: functional; settings: for LC50: Schistosoma japonicum, 2 h
[1] = Toxicity in tadpole assessed as lethality at 10 ppm measured after 12 hrs; type: organism-based; settings: anura, in vivo
[2] = Toxicity in tadpole assessed as lethality at 5 ppm measured after 12 hrs; type: organism-based; settings: anura, in vivo
[3] = Toxicity in tadpole assessed as lethality at 2.5 ppm measured after 12 hrs; type: organism-based; settings: anura, in vivo
[4] = Toxicity in tadpole assessed as lethality at 1.25 ppm measured after 12 hrs; type: organism-based; settings: anura, in vivo
[5] = Toxicity in tadpole assessed as lethality at 0.625 ppm measured after 12 hrs; type: organism-based; settings: anura, in vivo
[6] = Toxicity in tadpole assessed as lethality at 0.3125 ppm measured after 12 hrs; type: organism-based; settings: anura, in vivo
[7] = Toxicity in tadpole assessed as lethality at 10 ppm measured after 24 hrs; type: organism-based; settings: anura, in vivo
[8] = Toxicity in tadpole assessed as lethality at 5 ppm measured after 24 hrs; type: organism-based; settings: anura, in vivo
[9] = Toxicity in tadpole assessed as lethality at 2.5 ppm measured after 24 hrs; type: organism-based; settings: anura, in vivo
[10] = Toxicity in tadpole assessed as lethality at 1.25 ppm measured after 24 hrs; type: organism-based; settings: anura, in vivo
[11] = Toxicity in tadpole assessed as lethality at 0.625 ppm measured after 24 hrs; type: organism-based; settings: anura, in vivo
[12] = Toxicity in tadpole assessed as lethality at 0.3125 ppm measured after 24 hrs; type: organism-based; settings: anura, in vivo
[13] = Toxicity in tadpole assessed as lethality at 10 ppm measured after 48 hrs; type: organism-based; settings: anura, in vivo
[14] = Toxicity in tadpole assessed as lethality at 5 ppm measured after 48 hrs; type: organism-based; settings: anura, in vivo
[15] = Toxicity in tadpole assessed as lethality at 2.5 ppm measured after 48 hrs; type: organism-based; settings: anura, in vivo
[16] = Toxicity in tadpole assessed as lethality at 1.25 ppm measured after 48 hrs; type: organism-based; settings: anura, in vivo
[17] = Toxicity in tadpole assessed as lethality at 0.625 ppm measured after 48 hrs; type: organism-based; settings: anura, in vivo
[18] = Toxicity in tadpole assessed as lethality at 0.3125 ppm measured after 48 hrs; type: organism-based; settings: anura, in vivo
[19] = Toxicity in tadpole assessed as lethality at 10 ppm measured after 72 hrs; type: organism-based; settings: anura, in vivo
[20] = Toxicity in tadpole assessed as lethality at 5 ppm measured after 72 hrs; type: organism-based; settings: anura, in vivo
[21] = Toxicity in tadpole assessed as lethality at 2.5 ppm measured after 72 hrs; type: organism-based; settings: anura, in vivo
[22] = Toxicity in tadpole assessed as lethality at 1.25 ppm measured after 72 hrs; type: organism-based; settings: anura, in vivo
[23] = Toxicity in tadpole assessed as lethality at 0.625 ppm measured after 72 hrs; type: organism-based; settings: anura, in vivo
[24] = Toxicity in tadpole assessed as lethality at 0.3125 ppm measured after 72 hrs; type: organism-based; settings: anura, in vivo
[25] = Toxicity in tadpole assessed as lethality at 10 ppm measured after 96 hrs; type: organism-based; settings: anura, in vivo
[26] = Toxicity in tadpole assessed as lethality at 5 ppm measured after 96 hrs; type: organism-based; settings: anura, in vivo
[27] = Toxicity in tadpole assessed as lethality at 2.5 ppm measured after 96 hrs; type: organism-based; settings: anura, in vivo
[28] = Toxicity in tadpole assessed as lethality at 1.25 ppm measured after 96 hrs; type: organism-based; settings: anura, in vivo
[29] = Toxicity in tadpole assessed as lethality at 0.625 ppm measured after 96 hrs; type: organism-based; settings: anura, in vivo
[30] = Toxicity in tadpole assessed as lethality at 0.3125 ppm measured after 96 hrs; type: organism-based; settings: anura, in vivo
[31] = Toxicity in tadpole assessed as lethality at 10 ppm measured after 120 hrs; type: organism-based; settings: anura, in vivo
[32] = Toxicity in tadpole assessed as lethality at 5 ppm measured after 120 hrs; type: organism-based; settings: anura, in vivo
[33] = Toxicity in tadpole assessed as lethality at 2.5 ppm measured after 120 hrs; type: organism-based; settings: anura, in vivo
[34] = Toxicity in tadpole assessed as lethality at 1.25 ppm measured after 120 hrs; type: organism-based; settings: anura, in vivo
[35] = Toxicity in tadpole assessed as lethality at 0.625 ppm measured after 120 hrs; type: organism-based; settings: anura, in vivo
[36] = Toxicity in tadpole assessed as lethality at 0.3125 ppm measured after 120 hrs; type: organism-based; settings: anura, in vivo

`COc1ccc(-n2cnc3c(Cl)cc(Cl)cc3c2=O)c(OC)c1` gave an LC90 (Oncomelania hupensis) of 8.62 ppm, an LC50 (Oncomelania hupensis) of 6.55 µg/mL (≈ 18.7 µM) and an LC90 (Schistosoma japonicum) of 2.15 ppm. It also gave an LC50 (Schistosoma japonicum) of 1.64 µg/mL (≈ 4.67 µM).
For `Cc1ccc(-n2cnc3ccc(Cl)cc3c2=O)cc1`, the LC90 (Oncomelania hupensis) was 5.37 ppm, the LC50 (Oncomelania hupensis) was 4.07 µg/mL (≈ 15 µM) and the LC90 (Schistosoma japonicum) was 1.35 ppm. It also gave an LC50 (Schistosoma japonicum) of 1.02 µg/mL (≈ 3.77 µM).
Work on `COc1cc(-n2cnc3ccc(Cl)cc3c2=O)cc(OC)c1OC` yielded an LC90 (Oncomelania hupensis) of 3.55 ppm, an LC50 (Oncomelania hupensis) of 2.69 µg/mL (≈ 7.76 µM) and an LC90 (Schistosoma japonicum) of 0.89 ppm. For the same compound, the LC50 (Schistosoma japonicum) was 0.68 µg/mL (≈ 1.96 µM), the mortality at 12 h, 10 ppm [1] was 0% and the mortality at 12 h, 5 ppm [2] was 0%. It also gave a mortality at 12 h, 2.5 ppm [3] of 0%, a mortality at 12 h, 1.25 ppm [4] of 0% and a mortality at 12 h, 0.625 ppm [5] of 0%. For the same compound, the mortality at 12 h, 0.3125 ppm [6] was 0%, the mortality at 24 h, 10 ppm [7] was 0% and the mortality at 24 h, 5 ppm [8] was 0%. It also gave a mortality at 24 h, 2.5 ppm [9] of 0%, a mortality at 24 h, 1.25 ppm [10] of 0% and a mortality at 24 h, 0.625 ppm [11] of 0%. For the same compound, the mortality at 24 h, 0.3125 ppm [12] was 0%, the mortality at 48 h, 10 ppm [13] was 10% and the mortality at 48 h, 5 ppm [14] was 0%. For the same compound, the mortality at 48 h, 2.5 ppm [15] was 0%, the mortality at 48 h, 1.25 ppm [16] was 0% and the mortality at 48 h, 0.625 ppm [17] was 0%. For the same compound, the mortality at 48 h, 0.3125 ppm [18] was 0%, the mortality at 72 h, 10 ppm [19] was 10% and the mortality at 72 h, 5 ppm [20] was 0%. For the same compound, the mortality at 72 h, 2.5 ppm [21] was 0%, the mortality at 72 h, 1.25 ppm [22] was 0% and the mortality at 72 h, 0.625 ppm [23] was 0%. The mortality at 72 h, 0.3125 ppm [24] was 0%, the mortality at 96 h, 10 ppm [25] was 20% and the mortality at 96 h, 5 ppm [26] was 10%. For the same compound, the mortality at 96 h, 2.5 ppm [27] was 0%, the mortality at 96 h, 1.25 ppm [28] was 0% and the mortality at 96 h, 0.625 ppm [29] was 0%. It also gave a mortality at 96 h, 0.3125 ppm [30] of 0%, a mortality at 120 h, 10 ppm [31] of 20% and a mortality at 120 h, 5 ppm [32] of 10%. The mortality at 120 h, 2.5 ppm [33] was 0%, the mortality at 120 h, 1.25 ppm [34] was 0% and the mortality at 120 h, 0.625 ppm [35] was 0%. It also gave a mortality at 120 h, 0.3125 ppm [36] of 0%.
For `COc1cc(-n2cnc3c(Cl)cc(Cl)cc3c2=O)cc(OC)c1OC`, the LC90 (Oncomelania hupensis) was 12.95 ppm, the LC50 (Oncomelania hupensis) was 9.95 µg/mL (≈ 26.1 µM) and the LC90 (Schistosoma japonicum) was 3.28 ppm. It also gave an LC50 (Schistosoma japonicum) of 2.49 µg/mL (≈ 6.53 µM).
Compound `COc1ccc(-n2cnc3ccc(Cl)cc3c2=O)c(OC)c1` has an LC90 (Oncomelania hupensis) of 4.97 ppm, an LC50 (Oncomelania hupensis) of 3.78 µg/mL (≈ 11.9 µM) and an LC90 (Schistosoma japonicum) of 1.19 ppm. It also gave an LC50 (Schistosoma japonicum) of 0.91 µg/mL (≈ 2.87 µM).
In the case of `COc1cc([N+](=O)[O-])ccc1-n1cnc2c(Cl)cc(Cl)cc2c1=O`, the LC90 (Oncomelania hupensis) is reported as 7.03 ppm, the LC50 (Oncomelania hupensis) is reported as 5.34 µg/mL (≈ 14.6 µM) and the LC90 (Schistosoma japonicum) is reported as 1.72 ppm. It also gave an LC50 (Schistosoma japonicum) of 1.31 µg/mL (≈ 3.58 µM).
`NCCO.O=C(Nc1ccc([N+](=O)[O-])cc1Cl)c1cc(Cl)ccc1O` showed an LC90 (Oncomelania hupensis) of under 1 ppm, an LC50 (Oncomelania hupensis) of under 1 µg/mL and an LC90 (Schistosoma japonicum) of under 0.1 ppm. It also gave an LC50 (Schistosoma japonicum) of under 0.1 µg/mL.
Compound `O=c1c2cc(Cl)cc(Cl)c2ncn1-c1ccc([N+](=O)[O-])cc1` has an LC90 (Oncomelania hupensis) of 6.11 ppm, an LC50 (Oncomelania hupensis) of 4.65 µg/mL (≈ 13.8 µM) and an LC90 (Schistosoma japonicum) of 1.52 ppm. For the same compound, the LC50 (Schistosoma japonicum) was 1.15 µg/mL (≈ 3.42 µM).
With `COc1ccc(-n2cnc3ccc(Cl)cc3c2=O)cc1` the LC90 (Oncomelania hupensis) was 5.01 ppm, the LC50 (Oncomelania hupensis) was 3.8 µg/mL (≈ 13.3 µM) and the LC90 (Schistosoma japonicum) was 1.23 ppm. The LC50 (Schistosoma japonicum) was 0.95 µg/mL (≈ 3.31 µM).
With `O=c1c2cc(Cl)ccc2ncn1-c1ccccc1` the LC90 (Oncomelania hupensis) was 6.16 ppm, the LC50 (Oncomelania hupensis) was 4.68 µg/mL (≈ 18.2 µM) and the LC90 (Schistosoma japonicum) was 1.55 ppm. The LC50 (Schistosoma japonicum) was 1.17 µg/mL (≈ 4.56 µM).
In the case of `O=c1c2cc(Cl)ccc2ncn1C1CCCCC1`, the LC90 (Oncomelania hupensis) is reported as over 100 ppm, the LC50 (Oncomelania hupensis) is reported as over 100 µg/mL and the LC90 (Schistosoma japonicum) is reported as over 50 ppm. It also gave an LC50 (Schistosoma japonicum) of over 50 µg/mL.
